Assay results reported in patent publication US20230090255A1, “MAGL INHIBITOR, PREPARATION METHOD THEREFOR AND USE THEREOF” (LUNAN PHARMACEUTICAL GROUP CORPORATION, priority 2019, published 2023).
Marks after values point to notes of the source that are not given here. Each block holds one compound with its values, some of them ahead of it.

How the values were obtained:
[1] = tested on: reserpine-induced mice depression; test: Reserpine-induced mice depression; assay type: in vivo, ICR mouse; parameters: Awakening / Finger contact / Head touch / Fear / Autonomic activity / Eyelid closure / Upright: scale not given here
Method: • Species: ICR mouse • Microbiological level: SPF • Quantity and sex of the animals purchased: male: 75; female: 75 • Quantity and sex of the animals used: male: 75; female: 75 • Body weight: 13-18 g when accepted
Group design: there were 50 pieces for each batch of animals and 3 batches in total; each batch of animals were randomly divided into 5 groups; low, middle and high-dose groups of the samples for test, blank control group and model group; a sample for test was tested per batch.
3.1 Animals were administrated via subcutaneous injection per day with doses of 4, 8 and 16 mg/kg for 6 d in total. 2 h later after the final administration, each animal was subcutaneously injected with 4 mg/kg reserpine except the blank control group; afterwards, indicators, such as, awakening, finger contact, fear, head touch, autonomic activity, upright and eyelid closure were determined 2 h later.
Data statistics and analysis were completed via a computer by SPSS 17.0 software and office 2016, and data statistics was inspected by Kruskal-Wallis. If the Kruskal-Wallis inspection result is significant ((P<0.05), multiple comparison inspection is further performed by a Mann-Whitney U nonparametric test method.

[2] = tested on: mice tail suspension test; test: Mice tail suspension test; assay type: in vivo, ICR mice; details: final 4 min of 6 min, 5 mg/kg intragastric once per day 10 d
Method: Male ICR mice having a body weight of 18-22 g. The animals were active on a schedule of normal illumination for 12 h and in the dark for 12 h. Environmental temperature and relative humidity were relatively kept for 22±1° C. and 55±5%.
There were 7 groups of laboratory mice, 10 pieces each group, set as a control group (normal saline), a positive control group (fluoxetine hydrochloride capsule, 5 mg/kg), 5 MAGLZ-II series of administration treatment groups: MAGLZ-II-06, MAGLZ-II-07, MAGLZ-II-11, MAGLZ-II-17 and MAGLZ-II-18, respectively, with an administration concentration of 5 mg/kg.
All medicaments were used once per day via intragastric administration with a dose of 20 mL/kg (body weight), lasting for 10 d. 1 h later after the final administration, the detection of animal behaviors was started.
The tail suspension test (TST) was performed by the method established by Porsolt, et al. (Porsolt R D, Le Pichon M, Jalfre M. Depression: a new animal model sensitive to antidepressant treatments[J]. Nature, 1977, 266(5604):730-732). Mice were respectively suspended on the tail portions with tail suspension clamps at a distance of 10 mm away from the tail portion of the box (250 mm×250 mm×300 mm) and a distance of 5 cm where the head of each mouse was away from the bottom portion. Noise was tested in a dark room having minimum background, and each mouse was suspended for 6 min, and an immobility time was recorded at intervals in the final 4 min. Judgment standard: the mice stopped struggling and kept still completely.
All data are shown by x̅±SD, and the comparison among groups is analyzed by one-way variance.

[3] = Tissue distribution test in mice; assay type: in vivo; parameters: content in the brain (tissue distribution): unit not given here; details: 16 mg/kg subcutaneous injection
[4] = high dose 16 mg/kg sc 6 d, 2 h after reserpine 4 mg/kg
[5] = low dose 4 mg/kg sc 6 d, 2 h after reserpine 4 mg/kg
[6] = middle dose 8 mg/kg sc 6 d, 2 h after reserpine 4 mg/kg

- content in the brain, ranking of the test substances [3]: lowest
- content in the brain (tissue distribution) ([3]; 1.0 h): 0
- content in the brain (tissue distribution) ([3]; 2.0 h): 1.6
- content in the brain (tissue distribution) ([3]; 5.0 h): 1.3
SMILES: O=C(Nc1cccc(Cl)c1)C1CCN(C(=O)c2cccc(O)c2)CC1 [MAGLZ-II-11]
- effect on reserpine-induced depression (conclusion) ([1]; 4, 8 and 16 mg/kg sc 6 d): has a certain effect
- Autonomic activity [1, 4]: 1.8±1.66* *
- Awakening [1, 4]: 3.2±1.33
- Eyelid closure [1, 4]: 2±1.26
- Fear [1, 4]: 0.2±0.60
- Finger contact [1, 4]: 2±1.79
- Head touch [1, 4]: 2.6±1.56
- Upright [1, 4]: 1±1.61* *
- Autonomic activity [1, 5]: 0.8±1.60
- Awakening [1, 5]: 3±1.61
- Eyelid closure [1, 5]: 1.2±0.98
- Fear [1, 5]: 0±0
- Finger contact [1, 5]: 1.6±1.50
- Head touch [1, 5]: 1±1.34
- Autonomic activity [1, 6]: 0.8±1.60
- Awakening [1, 6]: 2.6±1.56
- Eyelid closure [1, 6]: 1.4±1.28
- Fear [1, 6]: 0±0
- Finger contact [1, 6]: 1.8±1.66
- Head touch [1, 6]: 1.8±1.40
- Accumulated immobility time [2]: 72.81±23.49 S

SMILES: O=C(Nc1cccc(Cl)c1)C1CCN(C(=O)c2cc3ccccc3[nH]2)CC1 [MAGLZ-II-18]
- Accumulated immobility time [2]: 79.68±25.72 S
